Laboratory results published in US4861788A, “Antibacterial 1-normon-2-yl-heterocyclic compounds” (Beecham Group plc, priority 1983, dated 1989).
Values after ≈ are worked out from the molar mass of the structure shown. Where two headings read alike, the source gives them in different places.

Tests used:
[1] = system: M. hyopneumoniae J2206/183^b; assay: MIC against Mycoplasma in vitro (Friis broth with agarose); type: cell-based; details: Mesomycoplasma hyopneumoniae, 144 h; M. hyopneumoniae J2206/183^b; 6 days at 37° C; read-out: MIC
[2] = system: M. hyopneumoniae UCD 1; assay: as above; type: cell-based; details: Mesomycoplasma hyopneumoniae, UCD1, 144 h
[3] = system: M. hyopneumoniae TAM 6N; assay: as above; type: cell-based; details: Mesomycoplasma hyopneumoniae, TAM6N, 144 h; M. hyopneumoniae TAM 6N; 6 days at 37° C; read-out: MIC
[4] = system: M. hyopneumoniae ATCC 25095; assay: as above; type: cell-based; details: Mesomycoplasma hyopneumoniae, ATCC25095, 144 h; M. hyopneumoniae ATCC 25095; 6 days at 37° C; read-out: MIC
[5] = system: M. hyopneumoniae NCTC 101101; assay: as above; type: cell-based; details: Mesomycoplasma hyopneumoniae, NCTC101101, 144 h; M. hyopneumoniae NCTC 101101; 6 days at 37° C; read-out: MIC
[6] = system: M. hyosynoviae ATCC 25591; assay: as above; type: cell-based; details: 144 h; M. hyosynoviae ATCC 25591; 6 days at 37° C; read-out: MIC
[7] = system: M. bovis NCTC 10131; assay: microbe, parasite or virus in culture; type: cell-based; details: NCTC10131, 144 h
[8] = system: Bacillus subtilis 6633; assay: MIC against human bacteria in vitro (nutrient agar, chocolated horse blood); type: cell-based; details: human; Bacillus subtilis 6633; 18 hours at 37° C; read-out: MIC
Experimental: (§1) The activity of the normonyl derivaties of the Examples against various bacteria which are important in diseases of humans, was assayed in vitro using serial dilutions in nurient agar with 5% chocolated horse blood.

[9] = system: Corynebacterium xerosis 9755; assay: as above; type: cell-based; details: human; Corynebacterium xerosis 9755; 18 hours at 37° C; read-out: MIC
Experimental: as §1

[10] = system: E. coli ESS; assay: as above; type: cell-based; details: Escherichia coli; human; E. coli ESS; 18 hours at 37° C; read-out: MIC
Experimental: as §1

[11] = system: E. coli NCTC 10418; assay: as above; type: cell-based; details: Escherichia coli, NCTC10418; human; E. coli NCTC 10418; 18 hours at 37° C; read-out: MIC
Experimental: as §1

[12] = system: Haemophilus influenzae Wy21; assay: as above; type: cell-based; details: human; Haemophilus influenzae Wy21; 18 hours at 37° C; read-out: MIC
Experimental: as §1

[13] = system: K. aerogenes A; assay: as above; type: cell-based; details: Klebsiella aerogenes; human; K. aerogenes A; 18 hours at 37° C; read-out: MIC
Experimental: as §1

[14] = system: P. mirabilis 889; assay: as above; type: cell-based; details: Proteus mirabilis; human; P. mirabilis 889; 18 hours at 37° C; read-out: MIC
Experimental: as §1

[15] = system: Pasteurella multocida 1633; assay: as above; type: cell-based; details: human; Pasteurella multocida 1633; 18 hours at 37° C; read-out: MIC
Experimental: as §1

[16] = system: Ps. aeruginosa NCTC 10662; assay: as above; type: cell-based; details: Pseudomonas aeruginosa, NCTC10662; human; Ps. aeruginosa NCTC 10662; 18 hours at 37° C; read-out: MIC
Experimental: as §1

[17] = system: Sarcina lutea 8340; assay: as above; type: cell-based; details: Micrococcus luteus; human; Sarcina lutea 8340; 18 hours at 37° C; read-out: MIC
Experimental: as §1

[18] = system: Staph. aureus Oxford; assay: as above; type: cell-based; details: Staphylococcus aureus; human; Staph. aureus Oxford; 18 hours at 37° C; read-out: MIC
Experimental: as §1

[19] = system: Staph. aureus Russell; assay: as above; type: cell-based; details: Staphylococcus aureus; human; Staph. aureus Russell; 18 hours at 37° C; read-out: MIC
Experimental: as §1

[20] = system: Staph. aureus W2827; assay: as above; type: cell-based; details: Staphylococcus aureus; human; Staph. aureus W2827; 18 hours at 37° C; read-out: MIC
Experimental: as §1

[21] = system: Strep. agalactiae 2788-B; assay: as above; type: cell-based; details: Streptococcus agalactiae; human; Strep. agalactiae 2788-B; 18 hours at 37° C; read-out: MIC
Experimental: as §1

[22] = system: Strep. faecalis I; assay: as above; type: cell-based; details: Enterococcus faecalis; human; Strep. faecalis I; 18 hours at 37° C; read-out: MIC
Experimental: as §1

[23] = system: Strep. pyogenes R80/421-A; assay: as above; type: cell-based; details: Streptococcus pyogenes; human; Strep. pyogenes R80/421-A; 18 hours at 37° C; read-out: MIC
Experimental: as §1

[24] = system: Strep. spp. 64/848-C; assay: as above; type: cell-based; details: human; Strep. spp. 64/848-C; 18 hours at 37° C; read-out: MIC
Experimental: as §1

[25] = system: E. coli NCTC 10418; assay: MIC against veterinary bacteria in vitro (Diagnostic Sensitivity Test Agar); details: Escherichia coli, NCTC10418, 18 h
Experimental: (§2) The activity of the normonyl derivatives of the Examples against various veterinarily important bacteria, was assayed in vitro using two-fold serial dilutions in Diagnostic Sensitivity Test Agar inoculated with 10^4 organisms.

[26] = system: E. coli E1; assay: as above; details: Escherichia coli, E1, 18 h
Experimental: as §2

[27] = system: S. dublin S7; assay: as above; details: Salmonella enterica, S7, 18 h
Experimental: as §2

[28] = system: Bord. bronchiseptica B09; assay: as above; details: Bordetella bronchiseptica, B09, 18 h
Experimental: as §2

[29] = system: Erysipelothrix rhusiopathiae NCTC 8163; assay: as above; details: NCTC8163, 18 h
Experimental: as §2

[30] = system: Corynebacterium pyogenes CY1; assay: as above; details: CY1, 18 h
Experimental: as §2

[31] = system: Staph. aureus 152 (pen. sens); assay: as above; details: Staphylococcus aureus, 18 h
Experimental: as §2

[32] = system: Strep. uberis SPU1; assay: as above; details: Streptococcus uberis, SPU1, 18 h
Experimental: as §2

[33] = system: Strep. agalactiae SPA1; assay: as above; details: Streptococcus agalactiae, SPA1, 18 h
Experimental: as §2

## CC(=Cc1nnc(-c2ccc(S(C)(=O)=O)cc2)o1)CC1OCC(CC2OC2C(C)C(C)O)C(O)C1O (stereo not drawn) [Example 4, 2-p-Methylsulphonylphenyl-5-(1-normon-2-yl)-1,3,4-oxadiazole A]
[1]
  MIC: 0.5 µg/mL (≈ 0.957 µM)
[2]; M. hyopneumoniae UCD 1, 6 days at 37° C, read-out: MIC
  MIC: 0.25 µg/mL (≈ 0.478 µM)
[3]
  MIC: 0.5 µg/mL (≈ 0.957 µM)
[4]
  MIC: 0.25 µg/mL (≈ 0.478 µM)
[5]
  MIC: 0.5 µg/mL (≈ 0.957 µM)
[6]
  MIC: 1 µg/mL (≈ 1.91 µM)
[7]
  MIC: 0.05 µg/mL (≈ 0.0957 µM)
[8]
  MIC: 16 µg/mL (≈ 30.6 µM)
[9]
  MIC: > 64 µg/mL
[10]
  MIC: 4 µg/mL (≈ 7.65 µM)
[11]
  MIC: > 64 µg/mL
[12]
  MIC: 1 µg/mL (≈ 1.91 µM)
[13]
  MIC: > 64 µg/mL
[14]
  MIC: > 64 µg/mL
[15]
  MIC: 4 µg/mL (≈ 7.65 µM)
[16]
  MIC: > 64 µg/mL
[17]
  MIC: > 64 µg/mL
[18]
  MIC: 8 µg/mL (≈ 15.3 µM)
[19]
  MIC: 32 µg/mL (≈ 61.2 µM)
[20]
  MIC: 32 µg/mL (≈ 61.2 µM)
[21]
  MIC: 16 µg/mL (≈ 30.6 µM)
[22]
  MIC: > 64 µg/mL
[23]
  MIC: 16 µg/mL (≈ 30.6 µM)
[24]
  MIC: 16 µg/mL (≈ 30.6 µM)
[25]
  MIC: > 80 µg/mL
[26]
  MIC: > 80 µg/mL
[27]
  MIC: > 80 µg/mL
[28]
  MIC: 10 µg/mL (≈ 19.1 µM)
[29]
  MIC: 40 µg/mL (≈ 76.5 µM)
[30]
  MIC: > 80 µg/mL
[31]
  MIC: 5 µg/mL (≈ 9.57 µM)
[32]
  MIC: 2.5 µg/mL (≈ 4.78 µM)
[33]
  MIC: 10 µg/mL (≈ 19.1 µM)

## CC(=Cc1nnc(-c2cccnc2)o1)CC1OCC(CC2OC2C(C)C(C)O)C(O)C1O (stereo not drawn) [Example 5, 2-(1-Normon-2-yl)-5-(3-pyridyl)-1,3,4-oxadiazole A]
[1]
  MIC: 2.5 µg/mL (≈ 5.61 µM)
[2]
  MIC: 2.5 µg/mL (≈ 5.61 µM)
[3]
  MIC: 2.5 µg/mL (≈ 5.61 µM)
[4]
  MIC: 1 µg/mL (≈ 2.24 µM)
[5]
  MIC: 2.5 µg/mL (≈ 5.61 µM)
[6]
  MIC: 1 µg/mL (≈ 2.24 µM)
[7]
  MIC: 0.025 µg/mL (≈ 0.0561 µM)
[8]
  MIC: 4 µg/mL (≈ 8.98 µM)
[9]
  MIC: > 128 µg/mL
[10]
  MIC: 4 µg/mL (≈ 8.98 µM)
[11]
  MIC: > 128 µg/mL
[12]
  MIC: 0.5 µg/mL (≈ 1.12 µM)
[13]
  MIC: > 128 µg/mL
[14]
  MIC: > 128 µg/mL
[15]
  MIC: 1 µg/mL (≈ 2.24 µM)
[16]
  MIC: > 128 µg/mL
[17]
  MIC: > 128 µg/mL
[18]
  MIC: 8 µg/mL (≈ 18 µM)
[19]
  MIC: 32 µg/mL (≈ 71.8 µM)
[20]
  MIC: 32 µg/mL (≈ 71.8 µM)
[21]
  MIC: 32 µg/mL (≈ 71.8 µM)
[22]
  MIC: > 128 µg/mL
[23]
  MIC: 8 µg/mL (≈ 18 µM)
[24]
  MIC: 32 µg/mL (≈ 71.8 µM)
[25]
  MIC: > 80 µg/mL
[26]
  MIC: > 80 µg/mL
[27]
  MIC: > 80 µg/mL
[28]
  MIC: 20 µg/mL (≈ 44.9 µM)
[29]
  MIC: 80 µg/mL (≈ 180 µM)
[30]
  MIC: > 80 µg/mL
[31]
  MIC: 10 µg/mL (≈ 22.4 µM)
[32]
  MIC: 2.5 µg/mL (≈ 5.61 µM)
[33]
  MIC: 20 µg/mL (≈ 44.9 µM)
